The record followed here is patent US7115658B2 (priority 2002, dated 2006).

The target in this experiment is T1, Recombinant HCV polymerase (Hepatitis C virus genotype 1b, UniProt P26663).
T1 construct: 2.5 pmoles (0.15 μg) HCV polymerase protein
The experiment can be described thus: HCV Polymerase Inhibition Assay. It counts as biochemical. The settings on record: primer/template-directed transcription, 30 minutes at 30° C.; category symbol. Here is the method: The above-described compounds were tested for activity with HCV polymerase. Recombinant HCV polymerase was tested for its ability to perform primer/template-directed transcription in assays that contained 30 mM tris-HCl pH 7.2, 10 mM MgCl2, 20 mM NaCl, 1 mM Dithiothreitol (DTT), 0.05% Tween-20, 1% glycerol, 5 pmoles biotin-dG12 (primer), 0.5 pmoles poly(rC)300 (template), 1 μM GTP, 0.1–0.3 uCi α-^32P-GTP, and 2.5 pmoles (0.15 μg) HCV polymerase protein in a final volume of 75 μL. Reactions were initiated by addition of enzyme and incubated 30 minutes at 30° C. Reactions were stopped by addition of 33 mM EDTA, and polynucleotide products were collected by filtration through Diethylaminoethyl (DE) Filtermat papers (Wallac). Unincorporated triphosphate was removed by washing the filters with 5% dibasic sodium phosphate. The filters were counted in a Packard Tri-Lux Microbeta scintillation counter (Packard Bioscience, Meriden, Conn.). Compounds to be tested were added at various concentrations, e.g., 1 μm to 50 μm, from stocks in 10% DMSO-water (final DMSO is 1% in reaction).
IC50 values were estimated from the primary cpm data (collected in triplicate) using the formula: cpm (I)=cpm (no inhibitor)(1−([I]/([I]+IC50))). An IC50 value represents the concentration (in μM) of a compound that provides 50% inhibition of polymerase-directed transcription in the above assay. A percent inhibition value is expressed for a compound where it was impractical to calculate an IC50 value with available data. If the IC50 estimated by the above equation was less than 200 nM, it was recalculated using the following equation, which takes into account the enzyme concentration (30 nM) in the assay: cpm(I)=cpm(no inhibitor)(1−((((I+IC50+30e−9)−sqrt(((I+IC50+30e−9)^2)−4×30e−9×I)))/((2) (30e−9))). Curve fitting was performed using the program KaleidaGraph (Synergy Software, Reading, Pa.).

As a reminder, the IC50 is the midpoint of a concentration-inhibition curve.

T1 sequence (P26663 2420-3010): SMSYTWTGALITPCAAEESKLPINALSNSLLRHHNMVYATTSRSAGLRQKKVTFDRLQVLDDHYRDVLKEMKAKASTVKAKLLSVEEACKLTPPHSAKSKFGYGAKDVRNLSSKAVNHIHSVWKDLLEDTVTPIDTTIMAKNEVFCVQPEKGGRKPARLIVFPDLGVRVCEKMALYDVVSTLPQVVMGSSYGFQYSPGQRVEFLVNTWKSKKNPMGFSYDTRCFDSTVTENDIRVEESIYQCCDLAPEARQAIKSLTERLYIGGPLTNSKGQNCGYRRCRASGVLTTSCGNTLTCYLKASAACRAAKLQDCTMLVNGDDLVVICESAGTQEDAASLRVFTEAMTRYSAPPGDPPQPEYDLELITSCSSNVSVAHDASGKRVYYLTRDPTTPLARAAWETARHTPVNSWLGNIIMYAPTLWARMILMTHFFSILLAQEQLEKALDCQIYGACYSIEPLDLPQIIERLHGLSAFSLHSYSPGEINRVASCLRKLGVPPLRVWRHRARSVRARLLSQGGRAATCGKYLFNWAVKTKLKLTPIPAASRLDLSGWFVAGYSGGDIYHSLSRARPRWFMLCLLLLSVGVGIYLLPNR

For the molecule `O=C1CC(=O)OC(CCc2ccc(C(=O)N3CC[C@H](O)C3)cc2)(C2CCCC2)C1` (stereo in doubt) [Example 69, 6-Cyclopentyl-6-{2-[4-(3-hydroxy-pyrrolidine-1-carbonyl)-phenyl]-ethyl}-dihydro-pyran-2,4-dione], the IC50 lay within 10 to 50 µM.
On to `COc1cc(OC)c(CCC2(C3CCCC3)CC(O)=C(Sc3ncc(CO)n3C)C(=O)O2)cc1Cl` (centres unmarked) [Example 98, 6-[2-(5-chloro-2,4-dimethoxyphenyl)ethyl]-6-cyclopentyl-4-hydroxy-3-([5-(hydroxymethyl)-1-methyl-1H-imidazol-2-yl]thio)-5,6-dihydro-2H-pyran-2-one], for which the half-maximal inhibitory concentration (IC50) is < 1 µM.
`CCSc1ccc(CCC2(C3CCCC3)CC(=O)CC(=O)O2)cc1` (centres unmarked) [Example 75, 6-Cyclopentyl-6-[2-(4-ethylsulfanyl-phenyl)-ethyl]-dihydro-pyran-2,4-dione]: the IC50 was 1 to 10 µM.
As for `COc1ccc(CCC2(C3CCCC3)CC(O)=C(Sc3nc4nc(C)cc(C)n4n3)C(=O)O2)cc1Cl` (centres unmarked) [Example 101, 6-[2-(3-Chloro-4-methoxy-phenyl)-ethyl]-6-cyclopentyl-3-(5,7-dimethyl-[1,2,4]triazolo[1,5-a]pyrimidin-2-ylsulfanyl)-4-hydroxy-5,6-dihydro-pyran-2-one], the figure is < 1 µM.
As for `COc1ccc(CCC2(C3CCCC3)CC(O)=C(Sc3nc[nH]n3)C(=O)O2)cc1Cl` (centres unmarked) [Example 124, 6-[2-(3-Chloro-4-methoxy-phenyl)-ethyl]-6-cyclopentyl-4-hydroxy-3-(1 H[1,2,4]triazol-3-ylsulfanyl)-5,6-dihydro-pyran-2-one], the figure is < 1 µM; as for `CC(C)(C)c1cccc(CCC2(C3CCCC3)CC(=O)CC(=O)O2)c1` (centres unmarked) [Example 11, 6-[2-(3-tert-butyl-phenyl)-ethyl]-6-cyclopentyl-dihydro-pyran-2,4-dione], 1 to 10 µM.
As for `COc1ccc(CCC2(C3CCCC3)CC(=O)C(C(C)=O)C(=O)O2)c(OC)c1` (centres unmarked) [Example 166, 3-Acetyl-6-cyclopentyl-6-[2-(2,4-dimethoxy-phenyl)-ethyl]-dihydro-pyran-2,4-dione], the figure is 10 to 50 µM; as for `O=C1CC(=O)OC(CCc2cccc3ccccc23)(C2CCCC2)C1` (centres unmarked) [Example 2, 6-Cyclopentyl-6-(2-napthalen-1-ylethyl)dihydropyran-2,4-dione], > 50 µM.
With `COc1cc(OC)c(CCC2(C3CCCC3)CC(O)=C(Sc3nnc(-c4cccs4)n3C)C(=O)O2)cc1Cl` (centres unmarked) [Example 96, 6-[2-(5-chloro-2,4-dimethoxyphenyl)ethyl]-6-cyclopentyl-4-hydroxy-3-[(4-methyl-5-thien-2-yl 4H-1,2,4-triazol-3-yl)thio]-5,6-dihydro-2-one], the IC50 is < 1 µM.
In the case of `Cc1cc(CCC2(C3CCCC3)CC(O)=CC(=O)O2)ccc1C1(C)OCCO1` (centres unmarked) [Example 18, 6-Cyclopentyl-4-hydroxy-6-{2-[3-methyl-4-(2-methyl-1,3-dioxolan-2-yl)-phenyl]-ethyl}-5,6-dihydro-pyran-2-one] it was 1 to 10 µM; in that of `CC(C)c1cccc(CCC2(C3CCCC3)CC(=O)CC(=O)O2)c1` (centres unmarked) [Example 9, 6-Cyclopentyl-6-[2-(3-isopropyl-phenyl)-ethyl]-dihydro-pyran-2,4-dione], 1 to 10 µM.
In the case of `CC(C)c1ccc(CCC2(C3CCCC3)CC(=O)CC(=O)O2)cc1` (centres unmarked) [Example 40, 6-Cyclopentyl-6-[2-(4-isopropyl-phenyl)-ethyl]-dihydro-pyran-2,4-dione] it was 1 to 10 µM; in that of `COc1ccc(CCC2(C3CCCC3)CC(O)=C(Sc3nnnn3-c3ccc(O)cc3)C(=O)O2)cc1` (centres unmarked) [Example 114, 6-Cyclopentyl-4-hydroxy-3-([1-(4-hydroxyphenyl)-1H-tetraazol-5-yl]thio)-6-[2-(4-methoxyphenyl)ethyl]-5,6-dihydro-2H-pyran-2-one], < 1 µM; in that of `COC1=CC(=O)OC(CCc2cccc(C(C)C)c2)(C2CCCC2)C1` (centres unmarked) [Example 34, 6-Cyclopentyl-6-[2-(3-isopropyl)-ethyl]-4-methyoxy-5,6-dihydro-pyran-2-one], 10 to 50 µM.
In the case of `O=C1CC(=O)OC(CCc2ccc3c(c2)OCO3)(C2CCCC2)C1` (centres unmarked) [Example 23, 6-(2-Benzo[1,3]dioxol-5-yl-ethyl)-6-cyclopentyl-dihydro-pyran-2,4-dione] it was 10 to 50 µM; in that of `O=C1C=C(O)CC(CCc2ccc(Oc3ccccc3)cc2)(C2CCCC2)O1` (centres unmarked) [Example 47, 6-cyclopentyl-6-[2-(4-phenoxyphenyl)ethyl]-4-hydroxy-5,6-dihydro-2H-pyran-2-one], 10 to 50 µM.
As for `COc1ccc(CCC2(C3CCCC3)CC(=O)C(C(=O)Cc3ccccc3)C(=O)O2)cc1` (centres unmarked) [Example 171, 6-Cyclopentyl-6-[2-(4-methoxy-phenyl)-ethyl]-3-phenylacetyl-dihydro-pyran-2,4-dione], the IC50 lay within 10 to 50 µM.
As for `COc1ccc(CCC2(C3CCCC3)CC(O)=C(Cl)C(=O)O2)cc1` (centres unmarked) [Example 87, 3-Chloro-6-cyclopentyl-4-hydroxy-6-[2-(4-methoxyphenyl)ethyl]-5,6-dihydropyran-2-one], the figure is 10 to 50 µM.
As for `O=C1OC(CCc2ccc(O)cc2)(C2CCCC2)CC(O)=C1Sc1ccc2ccccc2c1` (centres unmarked) [Example 83], the figure is 1 to 10 µM; as for `CC(C)Oc1ccc(CCC2(C3CCCC3)CC(=O)CC(=O)O2)cc1F` (centres unmarked) [Example 73, 6-Cyclopentyl-6-[2-(3-fluoro-4-isopropoxy-phenyl)-ethyl]-dihydro-pyran-2,4-dione], < 1 µM; as for `O=C1OC(CCc2ccc(O)cc2)(C2CCCC2)CC(O)=C1Sc1cccc2ccccc12` (centres unmarked) [Example 85, 6-Cyclopentyl-4-hydroxy-6-[2-(4-hydroxyphenyl)ethyl]-3-(naphthalen-1-ylsulfanyl)-5,6-dihydropyran-2-one], 1 to 10 µM.
As for `CC(C)Oc1ccc(CCC2(C3CCCC3)CC(=O)CC(=O)O2)cc1Cl` (centres unmarked) [Example 81, 6-[2-(3-Chloro-4-isopropoxy-phenyl)-ethyl]-6-cyclopentyl-dihydro-pyran-2,4-dione], the figure is < 1 µM; as for `O=C(Cc1ccccc1)C1C(=O)CC(CCc2cccc(Cl)c2)(C2CCCC2)OC1=O` (centres unmarked) [Example 170, 6-[2-(3-Chloro-phenyl)-ethyl]-6-cyclopentyl-3-phenylacetyl-dihydro-pyran-2,4-dione], 10 to 50 µM.
As for `Cc1cc(SC2=C(O)CC(CCc3ccc(O)cc3)(C3CCCC3)OC2=O)c(C(C)(C)C)cc1CO` (centres unmarked) [Example 133, 3-(2-tert-butyl-4-hydroxymethyl-5-methyl-phenylsulfanyl)-6-cyclopentyl-4-hydroxy-6-[2-(4-hydroxy-phenyl)-ethyl]-5,6-dihydro-pyran-2-one], the IC50 was < 1 µM.
In the case of `COc1cccc(CC2C(=O)CC(CCc3ccc(OC)cc3OC)(C3CCCC3)OC2=O)c1` (centres unmarked) [Example 162, 6-Cyclopentyl-6-[2-(2,4-dimethoxy-phenyl)-ethyl]-3-(3-methoxy-benzyl)-dihydro-pyran-2,4-dione] it was 1 to 10 µM; in that of `CC(C)Oc1cccc(CCC2(C3CCCC3)CC(=O)CC(=O)O2)c1` (centres unmarked) [Example 33, 6-Cyclopentyl-6-[2-(3-isopropoxy-phenyl)-ethyl]-dihydro-pyran-2,4-dione], 1 to 10 µM.
As for `C=CCOCCC1(C2CCCC2)CC(O)=C(Sc2nc3nc(C)cc(C)n3n2)C(=O)O1` (centres unmarked) [Example 104, 6-(2-Allyloxy-ethyl)-6-cyclopentyl-3-(5,7-dimethyl-[1,2,4]triazolo[1,5-a]pyrimidin-2-ylsulfanyl)-4-hydroxy-5,6-dihydro-pyran-2-one], the figure is 10 to 50 µM; as for `CCOc1cccc(CCC2(C3CCCC3)CC(=O)CC(=O)O2)c1` (centres unmarked) [Example 24, 6-Cyclopentyl-6-[2-(3-ethoxy-phenyl)-ethyl]-dihydro-pyran-2,4-dione], 1 to 10 µM; as for `COc1ccc(CCC2(C3CCCC3)CC(O)=C(Sc3ccccc3)C(=O)O2)cc1Cl` (centres unmarked) [Example 102, 6-[2-(3-Chloro-4-methoxy-phenyl)-ethyl]-6-cyclopentyl-4-hydroxy-3-phenylsulfanyl-5,6-dihydro-pyran-2-one], < 1 µM.
As to `COc1ccc(CCC2(C3CCCC3)CC(O)=C(Sc3ccc(O)cc3)C(=O)O2)cc1Cl` (centres unmarked) [Example 126, 6-[2-(3-Chloro-4-methoxy-phenyl)-ethyl]-6-cyclopentyl-4-hydroxy-3-(4-hydroxy-phenylsulfanyl)-5,6-dihydro-pyran-2-one], the IC50 is < 1 µM.
As for `O=C1OC(CCc2ccc(OCc3ccccc3)cc2)(C2CCCC2)CC(O)=C1Sc1cccc2ccccc12` (centres unmarked) [Example 86, 6-[2-(4-Benzyloxyphenyl)ethyl]-6-cyclopentyl-4-hydroxy-3-(napthalen-1-ylsulfanyl)-5,6-dihydropyran-2-one], the figure is 1 to 10 µM.
In the case of `COc1ccc(CCC2(C3CCCC3)CC(=O)CC(=O)O2)cn1` (centres unmarked) [Example 8, 6-cyclopentyl-6-[2-(6-methoxypyridin-3-yl)ethyl]dihydro-2H-pyran-2,4(3H)-dione], the IC50 fell in the range of 10 to 50 µM.
